Laboratory results: ChEMBL document CHEMBL4190187, “Discovery of pyrazolopyrimidine derivatives as novel inhibitors of ataxia telangiectasia and rad3 related protein (ATR)” (Bioorg Med Chem Lett, 2017)

Assays:
[1] = biological target: CDK4/Cyclin D3 (Homo sapiens) (UniProt P11802+P30281); test: Inhibition of recombinant full-length human CDK4/Cyclin D3 at 1 uM using Rb fragment as substrate after 40 mins in presence of [gamma-33P]ATP by scintillation counting method; format: protein-complex assay
[2] = biological target: cAMP-dependent protein kinase catalytic subunit PRKX (Homo sapiens) (UniProt P51817); test: Inhibition of recombinant full-length human PRKX at 1 uM using RRRLSFAEPG as substrate after 40 mins in presence of [gamma-33P]ATP by scintillation counting method
[3] = biological target: High affinity nerve growth factor receptor (Homo sapiens) (UniProt P04629); test: Inhibition of recombinant human TrkA (440 to end residues) at 1 uM using KKKSPGEYVNIEFG as substrate after 40 mins in presence of [gamma-33P]ATP by scintillation counting method
[4] = biological target: Homeodomain-interacting protein kinase 2 (Homo sapiens) (UniProt Q9H2X6); test: Inhibition of recombinant human HIPK2 (165 to 564 residues) at 1 uM using myelin basic protein as substrate after 40 mins in presence of [gamma-33P]ATP by scintillation counting method
Chain of Homeodomain-interacting protein kinase 2 (Homo sapiens) (Q9H2X6 whole entry, looked up, the tested form may be a part): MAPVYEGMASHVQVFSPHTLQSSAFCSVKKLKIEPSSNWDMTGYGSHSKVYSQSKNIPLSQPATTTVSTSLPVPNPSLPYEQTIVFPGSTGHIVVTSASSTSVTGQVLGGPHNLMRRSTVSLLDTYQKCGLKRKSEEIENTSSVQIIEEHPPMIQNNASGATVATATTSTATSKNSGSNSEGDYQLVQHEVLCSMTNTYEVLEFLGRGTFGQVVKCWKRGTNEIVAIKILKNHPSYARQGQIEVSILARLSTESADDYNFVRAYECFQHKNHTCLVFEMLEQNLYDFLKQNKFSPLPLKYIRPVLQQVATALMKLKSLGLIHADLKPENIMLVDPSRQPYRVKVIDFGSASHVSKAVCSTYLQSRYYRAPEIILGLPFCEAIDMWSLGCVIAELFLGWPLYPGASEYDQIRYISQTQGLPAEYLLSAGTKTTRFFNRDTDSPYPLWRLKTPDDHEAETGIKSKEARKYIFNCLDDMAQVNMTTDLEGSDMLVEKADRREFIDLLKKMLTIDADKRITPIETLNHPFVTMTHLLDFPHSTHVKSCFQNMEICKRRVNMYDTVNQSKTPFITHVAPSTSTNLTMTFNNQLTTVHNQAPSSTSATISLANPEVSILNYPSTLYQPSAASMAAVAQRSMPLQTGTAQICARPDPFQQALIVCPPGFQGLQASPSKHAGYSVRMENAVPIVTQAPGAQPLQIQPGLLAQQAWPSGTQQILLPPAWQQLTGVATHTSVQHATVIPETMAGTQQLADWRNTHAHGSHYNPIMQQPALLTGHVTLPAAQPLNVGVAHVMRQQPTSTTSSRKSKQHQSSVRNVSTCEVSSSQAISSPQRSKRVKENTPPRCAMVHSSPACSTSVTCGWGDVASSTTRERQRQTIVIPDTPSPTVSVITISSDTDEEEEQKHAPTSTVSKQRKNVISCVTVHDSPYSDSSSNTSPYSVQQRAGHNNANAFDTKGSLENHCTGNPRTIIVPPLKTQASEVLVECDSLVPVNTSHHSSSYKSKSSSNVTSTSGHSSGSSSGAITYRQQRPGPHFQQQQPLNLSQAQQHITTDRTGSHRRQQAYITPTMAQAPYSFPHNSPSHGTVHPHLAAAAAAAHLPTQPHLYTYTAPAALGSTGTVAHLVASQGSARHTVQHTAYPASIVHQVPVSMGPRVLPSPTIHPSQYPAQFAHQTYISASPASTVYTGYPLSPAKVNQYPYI

[5] = biological target: Dual specificity tyrosine-phosphorylation-regulated kinase 1A (Homo sapiens) (UniProt Q13627); test: Inhibition of recombinant full-length human DYRK1A at 1 uM using RRRFRPASPLRGPPK as substrate after 40 mins in presence of [gamma-33P]ATP by scintillation counting method
[6] = biological target: SRSF protein kinase 3 (Homo sapiens) (UniProt Q9UPE1); test: Inhibition of recombinant full-length human MSSK1 at 1 uM using ERMRPRKRQGSVRRRV as substrate after 40 mins in presence of [gamma-33P]ATP by scintillation counting method
Chain of SRSF protein kinase 3 (Homo sapiens) (Q9UPE1 whole entry): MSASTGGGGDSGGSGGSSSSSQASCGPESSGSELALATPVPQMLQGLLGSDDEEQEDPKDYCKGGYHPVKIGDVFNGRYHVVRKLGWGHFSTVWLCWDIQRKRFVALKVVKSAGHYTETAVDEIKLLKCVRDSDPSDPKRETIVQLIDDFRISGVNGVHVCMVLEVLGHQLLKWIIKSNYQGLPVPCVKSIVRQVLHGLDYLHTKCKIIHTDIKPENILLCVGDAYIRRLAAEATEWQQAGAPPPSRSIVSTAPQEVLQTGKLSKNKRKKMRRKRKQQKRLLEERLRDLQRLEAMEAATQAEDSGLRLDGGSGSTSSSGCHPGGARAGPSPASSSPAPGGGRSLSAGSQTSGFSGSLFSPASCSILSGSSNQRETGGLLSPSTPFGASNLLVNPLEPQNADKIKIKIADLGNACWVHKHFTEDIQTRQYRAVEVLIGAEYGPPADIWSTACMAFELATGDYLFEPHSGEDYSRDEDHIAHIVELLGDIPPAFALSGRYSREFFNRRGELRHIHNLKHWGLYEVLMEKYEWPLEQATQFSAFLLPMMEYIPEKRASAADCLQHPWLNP

[7] = biological target: 5'-AMP-activated protein kinase catalytic subunit alpha-1 (Homo sapiens) (UniProt Q13131); test: Inhibition of recombinant full-length human AMPKalpha1 at 1 uM using AMARAASAAALARRR as substrate after 40 mins in presence of [gamma-33P]ATP by scintillation counting method
[8] = biological target: Serine/threonine-protein kinase TAO2 (Homo sapiens) (UniProt Q9UL54); test: Inhibition of recombinant human TAO2 (1 to 320 residues) at 1 uM using myelin basic protein as substrate after 40 mins in presence of [gamma-33P]ATP by scintillation counting method
[9] = biological target: Ephrin type-A receptor 7 (Homo sapiens) (UniProt Q15375); test: Inhibition of recombinant human EPHA7 (613 to 909 residues) at 1 uM using KTFCGTPEYLAPEVRREPRILSEEEQEMFRDFDYIADWC as substrate after 40 mins in presence of [gamma-33P]ATP by scintillation counting method
[10] = biological target: Leucine-rich repeat serine/threonine-protein kinase 2 (Homo sapiens) (UniProt Q5S007); test: Inhibition of recombinant human LRRK2 (970 to end residues) at 1 uM using RLGRDKYKTLRQIRQ as substrate after 40 mins in presence of [gamma-33P]ATP by scintillation counting method
[11] = biological target: CDK18/Cyclin Y (Homo sapiens) (UniProt Q07002+Q8ND76); test: Inhibition of recombinant full-length human CDK18/Cyclin Y at 1 uM using YRRAAVPPSPSLSRHSSPHQS(p)EDEEE as substrate after 40 mins in presence of [gamma-33P]ATP by scintillation counting method; format: protein-complex assay
[12] = test system: PI3-kinase p110-alpha/p85-alpha (Homo sapiens), P27986+P42336 [H1047R]; test: Inhibition of recombinant full-length human p110a H1047R mutant/p85a at 1 uM using phosphatidylinositol 4,5-bisphosphate as substrate after 40 mins in presence of [gamma-33P]ATP by scintillation counting method; format: protein-complex assay
[13] = biological target: Tyrosine-protein kinase ABL2 (Homo sapiens) (UniProt P42684); test: Inhibition of recombinant human ARG (38 to end residues) at 1 uM using EAIYAAPFAKKK as substrate after 40 mins in presence of [gamma-33P]ATP by scintillation counting method
[14] = test system: Hepatocyte growth factor receptor (Homo sapiens), P08581 [D1246N]; test: Inhibition of recombinant human Met D1246N mutant (974 to end residues) at 1 uM using KKKGQEEEYVFIE as substrate after 40 mins in presence of [gamma-33P]ATP by scintillation counting method
Chain of Hepatocyte growth factor receptor (Homo sapiens), P08581 [D1246N] (P08581 with tags, fused parts or gaps D1246N): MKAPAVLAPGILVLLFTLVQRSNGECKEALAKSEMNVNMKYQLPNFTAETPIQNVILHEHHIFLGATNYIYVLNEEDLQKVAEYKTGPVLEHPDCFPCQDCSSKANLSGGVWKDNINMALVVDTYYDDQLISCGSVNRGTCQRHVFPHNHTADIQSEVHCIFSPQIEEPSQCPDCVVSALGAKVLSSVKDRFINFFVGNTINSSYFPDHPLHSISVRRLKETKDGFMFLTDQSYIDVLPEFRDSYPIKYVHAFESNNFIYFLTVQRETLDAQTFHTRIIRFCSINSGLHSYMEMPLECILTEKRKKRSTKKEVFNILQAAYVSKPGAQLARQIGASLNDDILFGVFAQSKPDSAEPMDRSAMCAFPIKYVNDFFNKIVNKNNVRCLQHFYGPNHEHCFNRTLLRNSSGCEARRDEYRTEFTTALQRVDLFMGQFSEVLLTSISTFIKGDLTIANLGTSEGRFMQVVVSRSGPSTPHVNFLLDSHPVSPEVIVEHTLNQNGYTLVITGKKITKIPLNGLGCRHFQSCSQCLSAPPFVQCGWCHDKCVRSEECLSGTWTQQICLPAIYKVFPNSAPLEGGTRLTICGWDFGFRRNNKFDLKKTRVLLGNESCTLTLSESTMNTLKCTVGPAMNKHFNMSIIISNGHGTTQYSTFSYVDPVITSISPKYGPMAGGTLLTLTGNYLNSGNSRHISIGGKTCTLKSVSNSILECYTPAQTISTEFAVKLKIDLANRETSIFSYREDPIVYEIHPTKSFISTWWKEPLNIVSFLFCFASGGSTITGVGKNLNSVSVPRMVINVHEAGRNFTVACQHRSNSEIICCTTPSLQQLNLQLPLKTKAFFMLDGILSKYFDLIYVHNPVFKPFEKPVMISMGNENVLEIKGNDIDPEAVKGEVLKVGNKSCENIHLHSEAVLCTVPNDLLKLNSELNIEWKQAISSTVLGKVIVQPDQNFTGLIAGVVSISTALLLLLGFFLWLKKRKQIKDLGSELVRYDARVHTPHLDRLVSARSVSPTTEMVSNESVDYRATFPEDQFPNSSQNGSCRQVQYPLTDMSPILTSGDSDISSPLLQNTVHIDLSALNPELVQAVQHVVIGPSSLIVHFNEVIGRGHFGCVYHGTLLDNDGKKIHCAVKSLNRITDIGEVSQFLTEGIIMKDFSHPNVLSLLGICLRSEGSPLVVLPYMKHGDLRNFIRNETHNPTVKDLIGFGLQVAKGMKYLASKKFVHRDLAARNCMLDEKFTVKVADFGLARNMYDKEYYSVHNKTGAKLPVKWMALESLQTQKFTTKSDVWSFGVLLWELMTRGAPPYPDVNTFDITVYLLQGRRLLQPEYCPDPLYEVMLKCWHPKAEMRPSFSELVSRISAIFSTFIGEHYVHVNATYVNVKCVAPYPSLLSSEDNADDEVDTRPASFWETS

[15] = biological target: Hepatocyte growth factor receptor (Homo sapiens) (UniProt P08581); test: Inhibition of recombinant human Met (974 to end residues) at 1 uM using KKKGQEEEYVFIE as substrate after 40 mins in presence of [gamma-33P]ATP by scintillation counting method
[16] = biological target: Serine/threonine-protein kinase 32B (Homo sapiens) (UniProt Q9NY57); test: Inhibition of recombinant full-length human STK32B at 1 uM using casein as substrate after 120 mins in presence of [gamma-33P]ATP by scintillation counting method
[17] = biological target: Serine/threonine-protein kinase Chk1 (Homo sapiens) (UniProt O14757); test: Inhibition of recombinant full-length human CHK1 at 1 uM using KKKVSRSGLYRSPSMPENLNRPR as substrate after 40 mins in presence of [gamma-33P]ATP by scintillation counting method
[18] = biological target: Serine/threonine-protein kinase pim-3 (Homo sapiens) (UniProt Q86V86); test: Inhibition of recombinant human PIM3 (2 to end residues) at 1 uM using RSRHSSYPAGT as substrate after 40 mins in presence of [gamma-33P]ATP by scintillation counting method
[19] = biological target: Serine/threonine-protein kinase pim-1 (Homo sapiens) (UniProt P11309); test: Inhibition of recombinant full-length human PIM1 at 1 uM using KKRNRTLTV as substrate after 40 mins in presence of [gamma-33P]ATP by scintillation counting method
[20] = biological target: Serine/threonine-protein kinase MRCK alpha (Homo sapiens) (UniProt Q5VT25); test: Inhibition of recombinant human MRCKalpha (1 to 473 residues) at 1 uM using KKRNRTLTV as substrate after 40 mins in presence of [gamma-33P]ATP by scintillation counting method
Chain of Serine/threonine-protein kinase MRCK alpha (Homo sapiens) (Q5VT25 whole entry, the tested form may be a part): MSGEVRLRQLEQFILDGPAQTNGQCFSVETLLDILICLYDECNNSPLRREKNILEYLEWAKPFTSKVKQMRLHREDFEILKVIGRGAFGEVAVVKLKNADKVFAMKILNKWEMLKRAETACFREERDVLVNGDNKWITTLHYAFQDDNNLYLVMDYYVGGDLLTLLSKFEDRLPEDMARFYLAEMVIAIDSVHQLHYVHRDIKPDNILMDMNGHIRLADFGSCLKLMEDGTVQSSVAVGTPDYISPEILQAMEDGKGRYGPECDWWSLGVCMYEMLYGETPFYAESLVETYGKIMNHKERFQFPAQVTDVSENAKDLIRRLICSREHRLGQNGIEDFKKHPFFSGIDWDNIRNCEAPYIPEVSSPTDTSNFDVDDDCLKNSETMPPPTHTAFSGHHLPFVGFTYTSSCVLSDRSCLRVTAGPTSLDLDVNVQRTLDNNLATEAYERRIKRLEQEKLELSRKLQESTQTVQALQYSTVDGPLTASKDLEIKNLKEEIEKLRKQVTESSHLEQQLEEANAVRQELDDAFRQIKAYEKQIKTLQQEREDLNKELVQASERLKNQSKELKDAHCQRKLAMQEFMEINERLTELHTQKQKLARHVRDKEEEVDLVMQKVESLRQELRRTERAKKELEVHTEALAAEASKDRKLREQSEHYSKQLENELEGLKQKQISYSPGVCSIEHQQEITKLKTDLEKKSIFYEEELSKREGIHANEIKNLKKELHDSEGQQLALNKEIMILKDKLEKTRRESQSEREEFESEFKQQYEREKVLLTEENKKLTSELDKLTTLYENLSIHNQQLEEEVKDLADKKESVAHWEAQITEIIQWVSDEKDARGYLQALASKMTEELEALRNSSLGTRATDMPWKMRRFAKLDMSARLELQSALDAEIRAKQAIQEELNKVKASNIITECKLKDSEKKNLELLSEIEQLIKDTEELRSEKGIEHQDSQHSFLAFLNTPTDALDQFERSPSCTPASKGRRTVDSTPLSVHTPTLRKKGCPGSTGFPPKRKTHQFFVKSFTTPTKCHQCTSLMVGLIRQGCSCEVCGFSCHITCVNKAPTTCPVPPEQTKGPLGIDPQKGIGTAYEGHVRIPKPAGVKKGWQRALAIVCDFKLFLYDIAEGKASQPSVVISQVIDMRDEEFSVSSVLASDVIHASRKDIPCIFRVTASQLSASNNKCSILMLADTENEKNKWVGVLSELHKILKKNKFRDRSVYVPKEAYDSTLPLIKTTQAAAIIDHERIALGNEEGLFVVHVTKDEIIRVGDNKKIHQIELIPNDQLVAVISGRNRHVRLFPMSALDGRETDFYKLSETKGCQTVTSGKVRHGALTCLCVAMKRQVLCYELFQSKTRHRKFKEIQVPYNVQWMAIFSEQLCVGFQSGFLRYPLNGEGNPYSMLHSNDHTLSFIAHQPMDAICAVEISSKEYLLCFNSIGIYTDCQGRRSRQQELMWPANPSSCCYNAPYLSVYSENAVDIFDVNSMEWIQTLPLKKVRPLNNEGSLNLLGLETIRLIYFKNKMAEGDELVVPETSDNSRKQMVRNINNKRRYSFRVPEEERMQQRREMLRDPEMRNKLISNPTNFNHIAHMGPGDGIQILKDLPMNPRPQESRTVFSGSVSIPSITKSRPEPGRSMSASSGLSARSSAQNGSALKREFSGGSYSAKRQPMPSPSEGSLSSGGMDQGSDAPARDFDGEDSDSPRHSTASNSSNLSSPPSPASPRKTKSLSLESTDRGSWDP

[21] = biological target: Calcium/calmodulin-dependent protein kinase type II subunit delta (Homo sapiens) (UniProt Q13557); test: Inhibition of recombinant full-length human CAMK2delta at 1 uM using […] after 40 mins in presence of [gamma-33P]ATP by scintillation counting method
[22] = biological target: Serine/threonine-protein kinase ULK1 (Homo sapiens) (UniProt O75385); test: Inhibition of recombinant human ULK1 (1 to 314 residues) at 1 uM using casein as substrate after 40 mins in presence of [gamma-33P]ATP by scintillation counting method
[23] = biological target: PI3K p110 delta/p85 alpha (Mus musculus) (UniProt P26450+O35904); test: Inhibition of recombinant full-length mouse p110d/p85a at 1 uM using phosphatidylinositol 4,5-bisphosphate as substrate after 40 mins in presence of [gamma-33P]ATP by scintillation counting method; format: protein-complex assay

Structure (SMILES): CS(=O)(=O)c1ccc(-n2nc(-c3cnc4[nH]ccc4c3)c3c(N)ncnc32)cc1
- inhibition [1]: -9%
- inhibition [2]: -4%
- inhibition [3]: 2%
- inhibition [4]: 3%
- inhibition [5]: -6%
- inhibition [6]: -8%
- inhibition [7]: -9%
- inhibition [8]: 9%
- inhibition [9]: 0%
- inhibition [10]: 22%
- inhibition [11]: 0%
- inhibition [12]: 16%
- inhibition [13]: 61%
- inhibition [14]: 3%
- inhibition [15]: -4%
- inhibition [16]: 7%
- inhibition [17]: 2%
- inhibition [18]: -1%
- inhibition [19]: -2%
- inhibition [20]: -3%
- inhibition [21]: 3%
- inhibition [22]: -1%
- inhibition [23]: 27%
